Columns and labels:
[1] = target: Kv1.5 (Homo sapiens, UniProt P22460); assay: Patch clamp assay, ion channel inhibition; assay type: cell-based; settings: 2000 μM; n=2
Description: (§1) The studies were conducted according to the conventional procedures.
(§2) The exposure duration of each channel was 5 minutes. […] Any left current after exposure to this dose was digitally subtracted to eliminate the contribution of any endogenous current.

[2] = target: T1, Kir2.1 (Homo sapiens, UniProt P63252); assay: Patch clamp assay, ion channel inhibition; assay type: cell-based; settings: 100 μM; n=2
T1 sequence (P63252 1-427): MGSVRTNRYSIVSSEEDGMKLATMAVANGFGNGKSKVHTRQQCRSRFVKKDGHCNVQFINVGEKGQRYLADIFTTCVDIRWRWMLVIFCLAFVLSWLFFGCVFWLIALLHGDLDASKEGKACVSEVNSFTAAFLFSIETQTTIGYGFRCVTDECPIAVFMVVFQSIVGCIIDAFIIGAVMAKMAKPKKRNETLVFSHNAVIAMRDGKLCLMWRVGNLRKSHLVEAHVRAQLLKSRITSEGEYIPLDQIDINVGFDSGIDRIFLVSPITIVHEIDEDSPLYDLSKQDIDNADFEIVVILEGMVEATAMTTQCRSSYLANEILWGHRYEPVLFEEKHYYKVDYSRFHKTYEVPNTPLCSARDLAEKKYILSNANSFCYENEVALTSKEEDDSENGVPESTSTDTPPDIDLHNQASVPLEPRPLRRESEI

[3] = target: T2, Kir3.1/3.4 (Homo sapiens, UniProt P48544+P48549); assay: Patch clamp assay, ion channel inhibition; assay type: cell-based; settings: 300 μM; n=2
T2 sequence (P48549 1-501): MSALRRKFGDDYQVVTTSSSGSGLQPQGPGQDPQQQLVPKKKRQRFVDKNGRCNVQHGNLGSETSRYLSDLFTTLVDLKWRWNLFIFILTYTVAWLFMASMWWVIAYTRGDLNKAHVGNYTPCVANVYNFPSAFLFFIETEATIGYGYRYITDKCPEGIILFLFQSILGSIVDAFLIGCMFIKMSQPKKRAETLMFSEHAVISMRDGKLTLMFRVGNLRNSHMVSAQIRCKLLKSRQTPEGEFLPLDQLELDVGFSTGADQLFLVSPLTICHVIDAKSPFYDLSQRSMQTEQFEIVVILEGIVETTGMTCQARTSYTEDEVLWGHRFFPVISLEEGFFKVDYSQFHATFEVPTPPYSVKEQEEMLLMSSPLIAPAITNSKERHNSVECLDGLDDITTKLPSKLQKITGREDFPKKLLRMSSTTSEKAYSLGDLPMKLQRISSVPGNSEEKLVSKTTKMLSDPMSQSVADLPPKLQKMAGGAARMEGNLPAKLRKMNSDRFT
T2 sequence (P48544 1-419): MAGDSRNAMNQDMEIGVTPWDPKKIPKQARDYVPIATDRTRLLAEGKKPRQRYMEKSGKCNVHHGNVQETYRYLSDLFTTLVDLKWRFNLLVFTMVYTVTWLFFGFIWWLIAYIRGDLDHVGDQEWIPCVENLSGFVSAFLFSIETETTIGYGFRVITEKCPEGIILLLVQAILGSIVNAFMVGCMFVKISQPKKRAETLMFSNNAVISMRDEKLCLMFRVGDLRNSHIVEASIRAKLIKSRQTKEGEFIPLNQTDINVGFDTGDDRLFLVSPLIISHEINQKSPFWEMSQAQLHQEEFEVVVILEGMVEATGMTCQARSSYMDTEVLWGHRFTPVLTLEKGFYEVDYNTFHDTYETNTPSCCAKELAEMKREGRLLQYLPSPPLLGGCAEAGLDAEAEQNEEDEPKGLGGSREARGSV
Description: as §1, §2

[4] = target: T3, KvLQT/minK (Homo sapiens, UniProt P51787); assay: Patch clamp assay, ion channel inhibition; assay type: cell-based; settings: 30 μM; n=2
T3 construct: expressed in transfected cells
Description: as §1, §2

[5] = target: T4, Kv4.3 (Homo sapiens, UniProt Q9UK17); assay: Patch clamp assay, ion channel inhibition; settings: read-out: Mean % inhibition (positive control)
T4 sequence (Q9UK17 1-655): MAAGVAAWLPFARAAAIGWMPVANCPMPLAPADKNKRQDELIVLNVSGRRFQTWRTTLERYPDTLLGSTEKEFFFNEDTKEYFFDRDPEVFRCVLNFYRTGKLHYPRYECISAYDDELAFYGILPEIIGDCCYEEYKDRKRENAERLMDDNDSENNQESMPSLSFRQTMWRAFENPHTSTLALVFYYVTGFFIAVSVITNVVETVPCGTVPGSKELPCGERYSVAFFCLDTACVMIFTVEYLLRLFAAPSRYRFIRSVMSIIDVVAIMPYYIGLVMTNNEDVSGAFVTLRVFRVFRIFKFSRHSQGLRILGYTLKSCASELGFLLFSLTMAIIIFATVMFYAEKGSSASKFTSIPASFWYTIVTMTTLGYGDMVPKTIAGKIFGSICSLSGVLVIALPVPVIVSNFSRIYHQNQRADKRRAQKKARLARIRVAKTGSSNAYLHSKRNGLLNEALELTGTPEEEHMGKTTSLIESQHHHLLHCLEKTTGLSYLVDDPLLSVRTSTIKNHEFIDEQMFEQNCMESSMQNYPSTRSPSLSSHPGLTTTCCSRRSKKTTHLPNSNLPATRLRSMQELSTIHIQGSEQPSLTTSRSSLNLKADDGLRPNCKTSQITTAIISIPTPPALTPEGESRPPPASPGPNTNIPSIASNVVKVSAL
Description: as §1, §2

[6] = target: Kir6.2/SUR2A (Homo sapiens, UniProt O60706+Q14654); assay: Patch clamp assay, ion channel inhibition; assay type: cell-based; settings: n=2, read-out: Mean % inhibition (positive control)
Description: as §1, §2

[7] = tested on: right atrium of rats; assay: Chronotropism of isolated rat atrium (frequency of spontaneous contractions)
Excerpt: The right rat atrium was used to assess the chronotropic activity. The values of the spontaneous mechanical activity of the right atrium were expressed in contractions frequency or beats per minute (bpm). The heart rate was 298±50 contractions per minute in the rat right atrium.

[8] = tested on: left atrium of rats; assay: Inotropism of isolated rat atrium (cardiac contraction force)
Excerpt: The left atrium of rats was used to assess the inotropic activity. The data were expressed as contraction force (g of tension), and were compared to the results obtained with bupivacaine.
The application of square pulses (5 V, 5 ms, 2 Hz) in the left atrium with frequency of 120 bpm was sufficient to produce a cardiac contraction force of 0.63±0.09 g of tension.

[9] = tested on: male Swiss mice; assay: Contortion assay (0.6% acetic acid, abdominal contortions) in mice; settings: for effect of naloxone on the analgesic action: naloxone 5 mg/kg i.p., morphine 10 mg/kg i.p., telocinobufagin 10 mg/kg oral
[10] = tested on: rats with sciatic nerve ligature; assay: Chronic constrictive injury (CCI) model, allodynia (von Frey); settings: for effect of naloxone on the analgesic action, allodynia: naloxone 5 mg/kg i.p., morphine 10 mg/kg, telocinobufagin 5 mg/kg i.p.; for antinociceptive effect on allodynia: p<0.05
[11] = tested on: male Swiss mice; assay: Hot plate assay; settings: for effect of naloxone on the analgesic action: naloxone 5 mg/kg i.p., morphine dose printed as 'mg/kg', telocinobufagin 5 mg/kg oral
[12] = tested on: male Swiss mice; assay: Formalin assay (intraplantar 4% formalin, phases 1 and 2) in mice; settings: for effect of naloxone on the analgesic action, phase 1 / effect of naloxone on the analgesic action, phase 2: naloxone 5 mg/kg i.p., morphine 10 mg/kg, telocinobufagin 5 mg/kg oral
[13] = tested on: male Swiss mice; assay: Tail flick assay; settings: for effect of naloxone on the analgesic action: naloxone 5 mg/kg i.p., morphine 10 mg/kg, telocinobufagin 5 mg/kg oral
[14] = tested on: rats with sciatic nerve ligature; assay: Chronic constrictive injury (CCI) model, hyperalgesia (Randall & Selitto paw pressure); settings: for effect of naloxone on the analgesic action, hyperalgesia: naloxone 5 mg/kg i.p., morphine 10 mg/kg, telocinobufagin 5 mg/kg i.p.
[15] = Solubility

Sequence of Kv1.5 (P22460 whole entry): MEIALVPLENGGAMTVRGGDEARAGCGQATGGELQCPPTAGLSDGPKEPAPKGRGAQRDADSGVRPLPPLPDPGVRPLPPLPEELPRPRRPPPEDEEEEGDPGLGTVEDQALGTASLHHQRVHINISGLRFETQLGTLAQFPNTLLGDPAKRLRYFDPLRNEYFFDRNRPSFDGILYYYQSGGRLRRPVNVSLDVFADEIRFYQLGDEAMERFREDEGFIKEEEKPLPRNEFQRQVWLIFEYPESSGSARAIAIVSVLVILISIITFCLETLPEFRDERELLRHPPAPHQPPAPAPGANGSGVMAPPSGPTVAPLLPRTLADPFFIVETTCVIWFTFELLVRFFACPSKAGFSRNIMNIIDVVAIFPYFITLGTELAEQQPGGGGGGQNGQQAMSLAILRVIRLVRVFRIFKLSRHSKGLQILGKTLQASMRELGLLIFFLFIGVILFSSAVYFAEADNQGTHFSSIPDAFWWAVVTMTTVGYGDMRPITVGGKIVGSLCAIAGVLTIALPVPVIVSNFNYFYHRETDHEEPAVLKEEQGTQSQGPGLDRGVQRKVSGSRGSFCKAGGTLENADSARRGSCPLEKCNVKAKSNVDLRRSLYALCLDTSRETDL
Sequence of Kir6.2/SUR2A (Q14654 whole entry): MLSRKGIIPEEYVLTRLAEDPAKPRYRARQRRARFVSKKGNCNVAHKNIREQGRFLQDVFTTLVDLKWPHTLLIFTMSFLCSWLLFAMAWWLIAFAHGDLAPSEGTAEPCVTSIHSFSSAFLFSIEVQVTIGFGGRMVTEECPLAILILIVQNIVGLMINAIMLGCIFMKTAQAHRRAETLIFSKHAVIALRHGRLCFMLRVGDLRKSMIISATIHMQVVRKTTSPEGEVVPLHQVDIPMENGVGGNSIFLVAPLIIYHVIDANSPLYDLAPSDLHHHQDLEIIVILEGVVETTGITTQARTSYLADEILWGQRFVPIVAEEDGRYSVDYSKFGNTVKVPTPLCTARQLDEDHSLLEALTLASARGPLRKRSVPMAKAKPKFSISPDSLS
Sequence of Kir6.2/SUR2A (O60706 whole entry): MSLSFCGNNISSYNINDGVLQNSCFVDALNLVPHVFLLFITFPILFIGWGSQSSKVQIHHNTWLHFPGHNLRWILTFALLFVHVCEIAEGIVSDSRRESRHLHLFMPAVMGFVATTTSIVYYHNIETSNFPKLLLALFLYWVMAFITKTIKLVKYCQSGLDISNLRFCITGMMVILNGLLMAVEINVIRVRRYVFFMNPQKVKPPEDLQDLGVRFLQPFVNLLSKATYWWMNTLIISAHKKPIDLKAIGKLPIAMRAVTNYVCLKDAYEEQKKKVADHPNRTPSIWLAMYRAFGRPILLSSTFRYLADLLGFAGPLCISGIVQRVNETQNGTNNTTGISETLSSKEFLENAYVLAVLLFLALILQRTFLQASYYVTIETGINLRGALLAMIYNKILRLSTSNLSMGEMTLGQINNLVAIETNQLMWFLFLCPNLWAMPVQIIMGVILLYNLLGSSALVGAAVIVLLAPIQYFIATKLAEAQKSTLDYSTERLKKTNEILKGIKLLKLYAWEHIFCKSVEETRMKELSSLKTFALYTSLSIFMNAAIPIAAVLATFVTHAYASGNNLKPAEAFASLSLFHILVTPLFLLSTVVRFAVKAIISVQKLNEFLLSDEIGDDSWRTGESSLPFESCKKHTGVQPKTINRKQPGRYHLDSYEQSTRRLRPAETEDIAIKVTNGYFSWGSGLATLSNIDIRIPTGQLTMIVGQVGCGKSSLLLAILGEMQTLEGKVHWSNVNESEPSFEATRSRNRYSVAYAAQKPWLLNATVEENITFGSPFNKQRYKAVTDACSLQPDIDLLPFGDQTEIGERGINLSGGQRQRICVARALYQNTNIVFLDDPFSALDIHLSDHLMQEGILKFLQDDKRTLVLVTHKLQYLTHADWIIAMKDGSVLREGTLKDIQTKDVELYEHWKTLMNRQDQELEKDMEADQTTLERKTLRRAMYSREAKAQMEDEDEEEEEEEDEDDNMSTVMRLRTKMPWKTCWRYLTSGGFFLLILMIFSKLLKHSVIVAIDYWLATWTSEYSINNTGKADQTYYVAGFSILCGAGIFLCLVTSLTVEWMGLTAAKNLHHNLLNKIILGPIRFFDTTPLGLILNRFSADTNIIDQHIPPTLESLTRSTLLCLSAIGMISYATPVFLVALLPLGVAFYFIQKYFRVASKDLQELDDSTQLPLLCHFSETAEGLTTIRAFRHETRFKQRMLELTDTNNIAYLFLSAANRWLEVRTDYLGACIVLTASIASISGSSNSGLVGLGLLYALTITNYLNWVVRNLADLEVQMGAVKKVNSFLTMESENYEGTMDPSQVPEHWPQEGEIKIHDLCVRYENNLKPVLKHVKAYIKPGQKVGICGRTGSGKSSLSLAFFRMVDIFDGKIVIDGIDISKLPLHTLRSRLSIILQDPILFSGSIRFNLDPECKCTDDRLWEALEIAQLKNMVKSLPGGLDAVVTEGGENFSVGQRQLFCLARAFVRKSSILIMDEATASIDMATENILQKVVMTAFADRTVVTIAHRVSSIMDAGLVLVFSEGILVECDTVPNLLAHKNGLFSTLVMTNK
T3 sequence (P51787 whole entry): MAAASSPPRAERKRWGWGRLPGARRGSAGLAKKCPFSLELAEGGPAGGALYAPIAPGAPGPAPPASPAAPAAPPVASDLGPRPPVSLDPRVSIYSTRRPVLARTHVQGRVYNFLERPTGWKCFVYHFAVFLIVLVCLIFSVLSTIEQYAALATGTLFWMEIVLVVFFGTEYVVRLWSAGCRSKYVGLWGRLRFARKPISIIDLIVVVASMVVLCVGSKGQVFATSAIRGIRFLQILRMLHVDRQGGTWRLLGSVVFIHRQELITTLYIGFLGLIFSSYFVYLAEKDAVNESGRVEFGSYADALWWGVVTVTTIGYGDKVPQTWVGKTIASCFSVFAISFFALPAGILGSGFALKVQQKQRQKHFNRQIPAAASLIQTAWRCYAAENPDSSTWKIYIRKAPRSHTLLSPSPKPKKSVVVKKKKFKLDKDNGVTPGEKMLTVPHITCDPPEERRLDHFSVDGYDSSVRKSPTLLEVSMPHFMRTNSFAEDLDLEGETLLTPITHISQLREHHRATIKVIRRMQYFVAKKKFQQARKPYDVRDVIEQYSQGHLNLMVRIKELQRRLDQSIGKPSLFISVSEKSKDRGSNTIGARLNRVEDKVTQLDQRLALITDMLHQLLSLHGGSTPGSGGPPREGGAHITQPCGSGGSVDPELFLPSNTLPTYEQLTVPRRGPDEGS

Nc1ccncc1 [4-AP]
Mean % inhibition (positive control) [1]: 85.1%

[Ba] [Barium]
Mean % inhibition (positive control) [2]: 85.4%
Mean % inhibition (positive control) [3]: 86.6%

CCS(=O)(=O)N(C)[C@H]1c2cc(C#N)ccc2OC(C)(C)[C@@H]1O [Chromanol-293B]
Mean % inhibition (positive control) [4]: 87.8%

O=C(NCC1CCCCN1)c1cc(OCC(F)(F)F)ccc1OCC(F)(F)F (stereo not shown) [Flecainide]
inhibition at 100 µM [5]: 96.1%

COc1ccc(Cl)cc1C(=O)NCCc1ccc(S(=O)(=O)NC(=O)NC2CCCCC2)cc1 [Glibenclamide]
inhibition at 1 µM [6]: 79.8%

CCCCN1CCCCC1C(=O)Nc1c(C)cccc1C (stereo not shown) [bupivacaine, reference compound]
frequency of spontaneous cardiac activity ([7]; 3×10^−5 M, basal 298±50, mean±standard error, n=6): 9.6±2.4 bpm
heart rate (frequency of spontaneous cardiac activity) ([7]; 10^−4 M, p<0.05): blocked completely the heart rate to zero
cardiac contraction force ([8]; 3×10^−5 M, basal 0.63±0.09, mean±SEM, n=6): 0.13±0.06 g of tension
cardiac contraction force ([8]; 10^−4 M, p<0.05): blocked completely the cardiac contraction force to zero

CN1CC[C@]23c4c5ccc(O)c4O[C@H]2[C@@H](O)C=C[C@H]3[C@H]1C5.O=S(=O)(O)O [morphine, morphine sulfate, reference compound]
effect of naloxone on the analgesic action [9]: blocked
reversion of the allodynia (compared to RP) ([10]; intraperitoneal morphine 10 mg/kg): ~50%
effect of naloxone on the analgesic action, allodynia [10]: blocked
effect of naloxone on the analgesic action [11]: blocked
effect of naloxone on the analgesic action, phase 1 ([12]; phase 1): blocked
effect of naloxone on the analgesic action, phase 2 ([12]; phase 2): blocked
effect of naloxone on the analgesic action [13]: blocked
effect of naloxone on the analgesic action, hyperalgesia [14]: blocked

C[C@]12CC[C@H](O)C[C@@]1(O)CC[C@@H]1[C@@H]2CC[C@]2(C)[C@@H](c3ccc(=O)oc3)CC[C@]12O [telocinobufagin, (3β,5β)-3,5,14-trihydroxy-bufa-20,22-dienolide]
antinociceptive effect compared to the other analgesics ([9]; 10 mg/kg oral vs diclofenac 50, dipyrone 50, codeine 20 mg/kg i.p., p<0.05): pretty much superior to the effects of the other analgesics
contortions blocked compared to the control group ([9]; 10 mg/kg oral, mice, p<0.001): ~90%
effect of naloxone on the analgesic action [9]: did not block
antinociceptive effect, mol to mol, greater than that of morphine ([9]; telocinobufagin 10 mg/kg oral vs morphine sulfate 10 mg/kg i.p.): ~40%
antinociceptive effect on allodynia ([10]; 5 mg/kg i.p.): blocking completely the allodynia
antinociceptive effect on allodynia ([10]; 20 mg/kg oral): blocking completely the allodynia
duration of the analgesic effects on allodynia ([10]; intraperitoneal 5 mg/kg): around 6 hours
reversion of the allodynia (compared to RP) ([10]; intraperitoneal TBC 5 mg/kg): reverted completely the allodynia
effect of naloxone on the analgesic action, allodynia [10]: did not block significantly
duration of the analgesic effects on allodynia ([10]; oral 20 mg/kg): around 6 hours
reversion of the allodynia (compared to RP) ([10]; oral TBC 20 mg/kg): reverted completely the allodynia
alteration of the spontaneous mechanical cardiac activity compared to the control ([7]; 10^−7 M to 10^−4 M, n=6, p>0.05): no significant alteration
solubility in 50% DMSO ([15]; 50% DMSO (v/v in water)): soluble
solubility in ethanol ([15]; ethanol (100%)): soluble
solubility in chloroform ([15]; pure chloroform): soluble
solubility in water ([15]; water): insoluble
effect of naloxone on the analgesic action [11]: did not block
increase of the response (latency) compared to control group ([11]; oral, dose printed as 'mg/kg' without figure, p<0.001): approximately 450%
antinociceptive effect compared to the other analgesics, phase 1 ([12]; phase 1, 10 mg/kg oral vs diclofenac 50, dipyrone 50, codeine 20 mg/kg i.p., p<0.05): pretty much superior to that of the other analgesics
licks blocked compared to the control group, phase 1 ([12]; phase 1, 10 mg/kg oral, p<0.005): ~80%
effect of naloxone on the analgesic action, phase 1 ([12]; phase 1): did not block
antinociceptive effect, mol to mol, greater than that of morphine, phase 1 ([12]; phase 1, telocinobufagin 10 mg/kg oral vs morphine sulfate 10 mg/kg i.p.): ~40%
antinociceptive effect compared to the other analgesics, phase 2 ([12]; phase 2, 5 mg/kg oral vs diclofenac 50, dipyrone 50, codeine 20 mg/kg i.p., p<0.05): pretty much superior to that of the other analgesics
licks blocked compared to the control group, phase 2 ([12]; phase 2, 10 mg/kg oral, p<0.0001): ~100%
effect of naloxone on the analgesic action, phase 2 ([12]; phase 2): did not block
antinociceptive effect, mol to mol, greater than that of morphine, phase 2 ([12]; phase 2, telocinobufagin 5 mg/kg oral vs morphine sulfate 10 mg/kg i.p.): ~58%
antinociceptive effect (tail flick latency) ([13]; doses of 2.5 and 5 mg/kg oral, p<0.05): significant antinociceptive effects
effect of naloxone on the analgesic action [13]: did not block
alteration of the cardiac contraction force ([8]; 10^−3 M during 12 minutes, p>0.05): did not produce significant alteration
alteration of the cardiac contraction force compared to the control ([8]; 10^−7 to 10^−4 M): no significant alteration
duration of the analgesic effects on hyperalgesia ([14]; intraperitoneal 5 mg/kg): around 6 hours
increase of the response compared to the control group (RPtest), hyperalgesia ([14]; intraperitoneal 5 mg/kg, p<0.001): approximately 9 times
effect of naloxone on the analgesic action, hyperalgesia [14]: did not block significantly
duration of the analgesic effects on hyperalgesia ([14]; oral 20 mg/kg): around 6 hours
increase of the response compared to the control group (RPtest), hyperalgesia ([14]; oral 20 mg/kg, p<0.05): ~3.9 times
antinociceptive effect, mol to mol, greater than that of morphine, hyperalgesia ([14]; telocinobufagin 5 mg/kg i.p. (20 mg/kg oral) vs morphine sulfate 10 mg/kg i.p.): approximately 900%
antinociceptive effect compared to the other analgesics, hyperalgesia ([14]; vs diclofenac, codeine, dipyrone, amitriptyline, carbamazepine, prednisone, p<0.05): pretty much superior to that of the other analgesics
